Data as given in patent publication US4829086A, “Soft β-adrenergic blocking agents” (priority 1985, dated 1989).
“Also recorded” adds a separate entry of the source. Counter-ions that a name gives are not always drawn. Like-named read-outs stand apart in the source and are kept apart here.

Legend:
[1] = Enzymatic hydrolytic cleavage in human plasma; assay type: in vitro ADME; conditions: for half-life at 1000 µM: human, plasma
Protocol: Analytical Methods. A high pressure liquid chromatography (HPLC) method was developed for the determination of the rate constants. The chromatographic analysis was performed in a system consisting of Waters Associates Model 600-A Solvent Delivery System, Model U-6K Injector and Model 440 Dual Channel Absorbance Detector operated at 254 and 280 nm. A 30 cm×3.9 mm (internal diameter) reverse phase μBondpack C18 column (Waters Associates), operated at ambient temperature, was used for all separations. When plasma samples were analyzed, the column was protected with a 2.3 cm×3.9 mm (internal diameter) Guard Column (Waters) packed with μBondpack C18/Corasil packing material. The mobile phase used for the separation of 17 and its degradation product, 5, consisted of water, 1-hexane sulfonic acid in acetic acid (B-6 reagent, Waters), 0.1M triethanolamine and methanol (100:1:100:799). […] For the separation of compounds 10-16 and 18 and their degradation product 5, a mobile phase consisting of water, 1-hexane sulfonic acid in acetic acid (B-6 reagent, Waters), 0.1M triethanolamine and methanol (390:1:10:599) was used.
Determination of the Hydrolytic Rate Constants in Aqueous Solutions. A 0.01M phosphate buffer and 0.01N sodium hydroxide solution were prepared from freshly distilled deionized water. This ionic strength was maintained at 0.1M with sodium chloride. The pH of the phosphate buffer was determined at 37.0° C. with a pH meter standardized at this temperature. For determination of the hydrolytic rate constants, a fresh concentrated solution of the ester in methanol was added to the hydrolytic medium previously equilibrated to the desired temperature and mixed thoroughly to result in an initial concentration of about 5×10^-4 mol. liter^-1. All reactions were run under pseudo first order conditions. Samples of 25 μL were injected into the column at various time intervals and the pseudo first order rate constants were determined from disappearance of the compound by linear regression of natural logarithm of the peak height versus time plots. The half-life and standard error of the rate constant were calculated for each run.
Determination of the Enzymatic Hydrolytic Cleavage Rates in Human Plasma. The freshly collected plasma used was obtained from the Civitan Regional Blood Center, Inc. (Gainesville, Fla.) and contained about 80% plasma diluted with anticoagulant citrate phosphate dextrose solution, U.S.P. The plasma was stored in a refrigerator and used within one week from the date it was collected.
A portion of 50 μL of a freshly prepared solution of the compound in methanol was added to 10 mL plasma, previously equilibrated at 37.0° C. in a water bath, and mixed thoroughly to result in an initial concentration of 1×10^-3 mol. liter^-1. One mL samples of plasma were withdrawn from the test medium, mixed immediately with 4.0 mL ice cold 95% v/v ethanol, centrifuged and the supernatant analyzed by HPLC. The first order hydrolytic rate constant was determined as before in the aqueous solutions and the results are listed in TABLE II below.

[2] = system: blood pressure response to isoproterenol; assay: Blood pressure response to isoproterenol in rats; assay type: in vivo, male Spraque-Dawley rats; conditions: 6 mg/kg i.p.; 10 minutes after isoproterenol
From the text: Initial Drug Screening Protocol. Thirty-two male Spraque-Dawley rats (Blue Spruce Farms) initially weighing 300-450 gm were divided into seven different groups, each for a different drug to be tested: 12(n=4), 14(n=4), 17(n=5), 13(n=4) and 18(n=3), corresponding to the designated compounds 12, 14, 17, 13 and 18 (number of animals), respectively. The other two groups were controls (n=8, isoproterenol alone pretreated with carrier) and those treated with a known β-blocker, dl-propranolol (n=3). Ech animal was anesthetized with sodium pentobarbital (45 mg/kg) and the carotid artery was cannulated with PE-50 tubing. The cannula was subcutaneously threaded around the neck and exteriorized dorsally between the shoulder blades. Th cannula was filled with a heparin solution (300 μg/mL) and sealed with a solid 22 gauge stylet. The animals were housed in individual stainless steel cages, and two days were allowed for recovery from the surgery. Food and water were provided ad libitum. On the day of the experiment, the blood pressure and heart rate of each rat were monitored with a pressure transducer (Narco-Bio model P-1000) and the data recorded on a four-channel physiograph (Narco-Bio systems Marck IV). One hour was allowed as an equilibration period before any drugs were administered. All beta blockers were administered intraperitoneally at a dose of 6 mg/kg. Compounds 12 and 14 and dl-proranolol were dissolved in normal saline while compounds 13, 17 and 18 were dissolved in an ethanol: water solution (3:1). Depending on the trial, controls were administered the appropriate carrier. One hour after administration of the blocker, isoproterenol (Isuprel®, Wintrop Laboratories) was administered subcutaneously at a dose of 25 μg/kg. Blood pressures and heart rate also were recorded 3, 5, 10, 15, 20, 30, 45 and 60 minutes after isoproterenol administration. Both control and experimental animals were unrestrained and free moving in their home cage throughout the experiment. […] However, significant differences in the mean heart rate response amoung the 7 groups were observed: *p<0.005;**p<0.025. Comparisons between groups were made by the Newman-Keuls procedure with significance set at the 95% confidence interval. […] All data are shown as mean±standard error of the mean.
Symbols are the same as those described for FIG. 1. […] Data are shown as mean±standard error of the mean.

[3] = system: heart rate response to isoproterenol (β-adrenergic); assay: Duration of action study, heart rate in rats; assay type: in vivo, male Sprague Dawley rats; conditions: 6 mg/kg i.p.; for resting heart rate prior to isoproterenol: mean ± SEM
Protocol: Duration of Action Studies. An additional 38 male Sprague Dawley rats (Blue Spruce Farms) initially weighing 268 to 290 gm were anesthetized with sodium pentobarbital (45 mg/kg i.p.), and the carotid artery was cannulated as previously described. On the day of experimentation, after a one-hour equilibration period, initial baseline conditions of basal heart rate and mean blood pressures were recorded. The beta blocker (17) was administered intraperitoneally at a dose of 6 mg/kg. The drug was dissolved in an ethanol: water solution (3:1). This carrier was administered in the control rats. Isoproterenol (Isurprel®, Wintrop Laboratories) was then administered (25 μg/kg s.c.), either 15(n=13), 60(n=12) or 90(n=12) minutes after the beta blocker was administered. Blood pressures and heart rates were recorded at 3, 5, 10, 15, 20, 30, 45 and 60 minutes after isoproterenol administration in all three trials. Both control and experimental animals were unrestrained and free moving in their home cages throught the experiment. Heart rates and mean blood pressure were calculated from the data and a one-way ANOVA was determined at each time interval. The results are shown in FIG. 2 for control vehicle and compound 17 at 15(), 60() and 90() minutes prior to isoproterenol administration at time zero. Resting heart rates were similar in all 4 groups prior to administration of isoproterenol; 342±12; 375±14; 372±19 and 385±17 beats/minute, respectively. […] Data are shown as mean±standard error of the mean.

CC(C)NCC(O)COc1ccc(CC(=O)OC2CC(C)(C)CC(C)(C)C2)cc1 (stereo not drawn) [Compound 17, 3,3,5,5-Tetramethylcyclohexyl 4-(2-hydroxy-3-isopropylamino)propoxyphenylacetate oxalate 3/4 hydrate]
Observed first order hydrolytic rate constant k ([1]; 37.0 ± 0.1° C., ± SEM): 0.566 ± 0.027 min⁻¹
half-life at 1000 µM ([1]; 37.0 ± 0.1° C., read-out: Half-life t1/2): 1.22 min
half-life at 1000 µM ([1]; read-out: in vitro plasma half-life): ~1 min
mean change in blood pressure at 10 minutes vs compound 18 group [2]: significantly different from the group treated with compound 18
heart rate response to isoproterenol ([3]; 15 or 60 minutes prior to isoproterenol 25 μg/kg s.c., FIG. 2, hydrate): attentuated heart rate response; also recorded: significant activity on heart rate
resting heart rate prior to isoproterenol ([3]; 15 minutes prior to isoproterenol): 375±14 beats/minute
resting heart rate prior to isoproterenol ([3]; 60 minutes prior to isoproterenol): 372±19 beats/minute
heart rate activity at 90 minutes ([3]; 90 minutes prior to isoproterenol, FIG. 2): disappears at 90 minutes
resting heart rate prior to isoproterenol ([3]; 90 minutes prior to isoproterenol): 385±17 beats/minute
